Assay results: article PMC12391994, “Synthesis of a fac-Tricarbonylrhenium(I) Complex with Pyrithione, Its Physicochemical Characterization, and Assessment of Biological Effects” (ACS Omega, 2025)

What was measured:
[1] = pH 7.4, 25.0 °C
Protocol: The concentration of the compound was determined by UV–vis spectrophotometry. For calibration, stock solutions of the compound were used with known concentrations dissolved in 100% DMSO, 75% DMSO, and 50% (v/v) DMSO/buffered aqueous solutions.

[2] = biological target: T1, cathepsin B (endopeptidase activity) (Homo sapiens, UniProt P07858); test: Relative inhibition of cathepsin B endopeptidase activity; type: biochemical; conditions: 50 μM; substrate Z-Arg-Arg-AMC; pH 6.0
T1 construct: made in house; host or cells: E. coli
Description: (§1) Relative inhibition is expressed as a percentage of the decrease in reaction velocity in the presence of an inhibitor, in comparison to the reaction velocity in the absence of an inhibitor. For that purpose, the specific fluorogenic substrates Z-Arg-Arg-7-amido-4-methylcoumarin (Z-Arg-Arg-AMC) and 2-aminobenzoyl (Abz)-Gly-Ile-Val-Arg-Ala-Lys-(Dnp)-OH were used for cathepsin B endopeptidase and exopeptidase activities, respectively, and Z-Phe-Arg-AMC was used for cathepsin L and V activities.
(§2) Human recombinant cathepsin B was expressed in E. coli, recombinant cathepsin V was expressed in Pichia pastoris, and human recombinant cathepsin L was expressed in E. coli, as reported. − For the determination of cathepsin B endopeptidase and exopeptidase activities, 100 mM phosphate buffer (pH 6.0) and 60 mM acetate buffer (pH 5.0) were used, respectively, and for the determination of cathepsin V and L activities, 100 mM acetate buffer (pH 5.5) was used. All buffers contained 0.1% PEG 8000 (Sigma-Aldrich, St. Louis, MO), 5 mM cysteine, and 1.5 mM EDTA. Prior to the assay, the enzymes were activated in the assay buffer for 5 min at 37 °C.
(§3) To determine the effect of inhibitors on enzyme activity, the following substrates were used: Z-Arg-Arg-AMC (final concentration 5 μM, Z-RR-AMC; Bachem, Bubendorf, Switzerland) for cathepsin B endopeptidase activity, Abz-Gly-Ile-Val-Arg-Ala-Lys-(Dnp)-OH (final concentration 1 μM, Abz-GIVRAK-(Dnp)-OH; Bachem) for cathepsin B exopeptidase activity, and Z-Phe-Arg-AMC (final concentration 2 μM, Z-FR-AMC; Bachem) for cathepsin V and L activity. The substrate ([…]) at a final concentration and inhibitor ([…]) at a concentration of 50 μM were added to the wells of a black microplate. The reaction was then initiated by adding 90 μL of activated enzyme (final concentrations: 5 nM cathepsin B for its endopeptidase activity, 0.5 nM cathepsin B for its exopeptidase activity, 2.5 ng/mL for cathepsin V, and 0.02 nM for cathepsin L) in the assay buffer. The formation of fluorescent degradation products during the reaction was continuously monitored at 460 ± 10 nm with excitation at 380 ± 20 nm for Z-Arg-Arg-AMC and Z-Phe-Arg-AMC and at 420 ± 10 nm with excitation at 320 ± 20 nm for Abz-Gly-Ile-Val-Arg-Ala-Lys(Dnp)-OH at 37 °C on a Tecan Infinite M1000 (Mannedorf, Switzerland) spectrofluorometer. All assay mixtures contained 5% (v/v) DMSO. To prevent false-positive inhibition due to the formation of compound aggregates, 0.01% Triton X-100 was used. All measurements were performed in triplicate and repeated twice. The relative inhibition was calculated using the following equation: relative inhibition (%) = 100(1 – v i/v o), where v i and v o designate the reaction velocities in the presence and absence of inhibitor, respectively.

cathepsin L = biological target: T2, cathepsin L (Homo sapiens, UniProt P07711); test: Relative inhibition of cathepsin L; type: biochemical; conditions: 50 μM; substrate Z-Phe-Arg-AMC; pH 5.5
T2 construct: made in house; host or cells: E. coli
Description: as §1, §2, §3

CCD-19Lu cells = test: MTT cytotoxicity assay, CCD-19Lu; type: cell-based, human; conditions: 72 h incubation, noncancerous fibroblast
Protocol: Its cytotoxicity was determined in the human HeLa cervical cancer cell line, the drug-sensitive Colo205 and its resistant counterpart, the ABCB1 expressing Colo320 colon adenocarcinoma cancer cell lines, using the colorimetric 3-(4,5-dimethylthiazol-2-yl)-2,5-diphenyltetrazolium bromide (MTT) test. To investigate the selectivity toward cancer cells, the noncancerous fibroblast CCD-19Lu cell line was included.
The tested compound was dissolved in DMSO to prepare a 5 mM stock solution, which was diluted in complete culture medium, to study the effect of compounds on cell growth of human colonic adenocarcinoma cell lines. Doxorubicin was used as the positive control. The cells were treated with a trypsin-versene (EDTA) solution. Cells were adjusted to a density of 1 × 10^4 cells in 100 μL of the appropriate culture medium and were added to each well, with the exception of the medium control wells. Except for the semiadherent Colo205 and Colo320 cell lines, the other adherent cell lines were seeded 24 h prior to the assay. Then, stock solutions were diluted in the appropriate culture medium, and 2-fold serial dilutions of compounds were prepared in 100 μL of the medium, horizontally. […] Cell growth was determined by measuring the optical density (OD) at 540/630 nm with a Multiscan EX ELISA reader (Thermo Labsystems, Cheshire, WA). […]

[3] = biological target: T3, cathepsin B (exopeptidase activity) (Homo sapiens, UniProt P07858); test: Relative inhibition of cathepsin B exopeptidase activity; type: biochemical; conditions: 50 μM; substrate Abz-Gly-Ile-Val-Arg-Ala-Lys-(Dnp)-OH; pH 5.0
T3 construct: made in house; host or cells: E. coli
Description: as §1, §2, §3

T2 sequence (P07711 114-333): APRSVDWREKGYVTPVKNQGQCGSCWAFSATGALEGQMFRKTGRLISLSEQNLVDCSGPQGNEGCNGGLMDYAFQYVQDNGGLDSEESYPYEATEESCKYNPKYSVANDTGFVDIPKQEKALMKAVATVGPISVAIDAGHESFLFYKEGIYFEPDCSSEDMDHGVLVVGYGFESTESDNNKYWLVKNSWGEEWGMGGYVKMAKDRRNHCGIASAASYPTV

N#Cc1ccccc1.[C-]#[O+].[C-]#[O+].[C-]#[O+].[O-]n1ccccc1=S.[Re+] [complex 4, fac-[Re(CO)3(pth)(benzonitrile)]]
aqueous solubility S7.4 [1]: 350 ± 10 µM | relative inhibition cathepsin B endopeptidase [2]: 63.6 ± 0.8% | relative inhibition cathepsin L (cathepsin L): 5.0 ± 4.8% | IC50 (CCD-19Lu cells): 5.47 ± 0.17 µM | relative inhibition cathepsin B exopeptidase [3]: 37.5 ± 2.1% | maximum nontoxic concentration (Vero cells): 6.25 µM
